Series [1] in a line: in vitro. To be noted: human, WI38 cells and HepG2 cells.
Description: Selectivity index, ratio of IC50 for human WI38 cells to IC50 for human HepG2 cells
The subject of series [2] is MCF7. In words: cells. Particulars: Homo sapiens.
Description: Anticancer activity against human MCF7 cells assessed as reduction in cell viability by MTT assay
Series [3] can be described thus: Anticancer activity against […] cells assessed as reduction in cell viability by MTT assay. In kind it is functional, cell-based. To be noted: Mus musculus.
Series [4] relates to WI-38. In words: Cytotoxicity against human WI-38 cells assessed as reduction in cell viability by MTT assay. Type of series: cell-based. Particulars: for IC50: Homo sapiens, WI-38; for EC100: human, wi-38.
Series [5] has as its system HepG2. In words: Anticancer activity against human HepG2 cells assessed as reduction in cell viability by MTT assay. Type of series: functional, cell-based.
Series [6] addresses Matrix metalloproteinase-9 (Homo sapiens, UniProt P14780). Nature of the series: Inhibition of MMP-9 (unknown origin) by colorimetric assay.
The target in series [7] is Collagenase 3 (Homo sapiens, UniProt P45452). Nature of the series: Inhibition of MMP-13 (unknown origin) by colorimetric assay.
In series [8] the target is 72 kDa type IV collagenase (Homo sapiens, UniProt P08253). In words: Inhibition of MMP-2 (unknown origin) by colorimetric assay.
Chain of 72 kDa type IV collagenase (P08253 whole entry): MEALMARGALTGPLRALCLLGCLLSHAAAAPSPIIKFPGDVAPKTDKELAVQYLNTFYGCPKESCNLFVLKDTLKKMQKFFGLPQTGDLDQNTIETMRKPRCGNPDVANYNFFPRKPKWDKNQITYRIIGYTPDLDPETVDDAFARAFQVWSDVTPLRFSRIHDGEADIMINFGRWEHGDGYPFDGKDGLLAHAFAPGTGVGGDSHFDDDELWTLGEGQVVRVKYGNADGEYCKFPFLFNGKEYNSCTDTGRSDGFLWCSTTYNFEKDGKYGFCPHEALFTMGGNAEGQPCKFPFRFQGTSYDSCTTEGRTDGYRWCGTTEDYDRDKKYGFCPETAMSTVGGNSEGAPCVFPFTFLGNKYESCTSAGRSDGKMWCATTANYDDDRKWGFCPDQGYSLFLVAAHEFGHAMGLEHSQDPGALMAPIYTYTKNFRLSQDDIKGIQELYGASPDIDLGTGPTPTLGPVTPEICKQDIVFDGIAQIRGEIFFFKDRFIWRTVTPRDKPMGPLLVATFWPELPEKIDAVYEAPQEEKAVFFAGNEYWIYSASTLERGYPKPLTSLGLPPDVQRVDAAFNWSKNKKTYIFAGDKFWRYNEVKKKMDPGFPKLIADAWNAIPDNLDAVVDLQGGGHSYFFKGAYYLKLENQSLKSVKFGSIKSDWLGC

Chain of Matrix metalloproteinase-9 (P14780 whole entry): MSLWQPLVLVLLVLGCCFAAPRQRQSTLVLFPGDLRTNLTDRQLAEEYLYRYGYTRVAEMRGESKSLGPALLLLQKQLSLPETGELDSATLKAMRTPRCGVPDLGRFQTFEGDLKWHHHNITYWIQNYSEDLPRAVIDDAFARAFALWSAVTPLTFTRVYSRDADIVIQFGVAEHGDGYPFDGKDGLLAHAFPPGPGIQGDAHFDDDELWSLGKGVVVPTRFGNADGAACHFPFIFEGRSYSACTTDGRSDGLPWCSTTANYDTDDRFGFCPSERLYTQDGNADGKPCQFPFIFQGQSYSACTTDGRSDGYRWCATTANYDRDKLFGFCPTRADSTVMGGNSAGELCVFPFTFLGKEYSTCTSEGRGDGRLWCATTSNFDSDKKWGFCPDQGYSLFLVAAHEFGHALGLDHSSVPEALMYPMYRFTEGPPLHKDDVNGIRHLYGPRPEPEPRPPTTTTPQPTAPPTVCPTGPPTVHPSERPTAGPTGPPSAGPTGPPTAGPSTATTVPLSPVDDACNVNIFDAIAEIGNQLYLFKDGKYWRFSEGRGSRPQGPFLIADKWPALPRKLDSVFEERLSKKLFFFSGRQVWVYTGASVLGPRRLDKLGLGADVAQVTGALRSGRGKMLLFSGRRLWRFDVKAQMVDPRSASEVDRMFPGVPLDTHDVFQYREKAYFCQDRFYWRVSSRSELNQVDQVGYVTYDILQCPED

For the compound `Cc1ccc(N(C(=O)c2ccc([N+](=O)[O-])cc2)C(C(=O)Nc2ccc([N+](=O)[O-])cc2)c2ccccc2)cc1` (configuration not stated), the selectivity ratio in series [1] worked out at 2.44. Moreover, the 50% inhibitory concentration (IC50) in series [2] was 0.104 µM; in series [3], 0.0923 µM; in series [4], 0.182 µM; in series [5] it was 0.0746 µM. Further, the EC100 in series [4] was found to be 113.6 nM.

For `O=C(Nc1ccc([N+](=O)[O-])cc1)C(c1ccccc1[N+](=O)[O-])N(C(=O)C(F)(F)F)c1ccccc1` (configuration not stated), the selectivity ratio in series [1] was 5.06. Further, the IC50 in series [2] worked out at 0.0148 µM; in series [3] it was 0.0526 µM; in series [4] it was 0.348 µM; in series [5], 0.0688 µM. The EC100 in series [4] was determined as 112.4 nM.

For the compound `O=C(Nc1ccc([N+](=O)[O-])cc1)C(c1ccccc1)N(C(=O)C(F)(F)F)c1ccccc1` (configuration not stated), the selectivity ratio in series [1] is 70.3. Also, the IC50 was determined as 0.0284 µM in series [2], 0.0239 µM in series [3], 1.46 µM in series [4] and 0.0208 µM in series [5]. Moreover, the EC100 in series [4] is reported as 540.3 nM.

For the compound `O=CN(c1ccccc1)C(C(=O)Nc1ccc([N+](=O)[O-])cc1)c1ccccc1` (configuration not stated), in series [1], the selectivity ratio is 5.09. The IC50 in series [2] turned out to be 0.0558 µM; in series [3] it was 0.0941 µM; in series [4] it was 0.543 µM; in series [5], 0.107 µM. The EC100 in series [4] is given as 161.5 nM.

In the case of `Cc1ccc(N(C(=O)c2ccc(Cl)cc2)C(C(=O)Nc2ccc([N+](=O)[O-])cc2)c2ccccc2)cc1` (configuration not stated), the selectivity ratio in series [1] was determined as 0.842. Besides, the IC50 came out at 0.064 µM in series [2], 0.0542 µM in series [3], 0.0427 µM in series [4] and 0.0507 µM in series [5]. In addition, the EC100 in series [4] came to 18.25 nM.

Take `NCC(=O)N(c1ccccc1)C(C(=O)Nc1ccc([N+](=O)[O-])cc1)c1ccccc1` (configuration not stated): the selectivity ratio in series [1] was determined as 1.44. The IC50 in series [2] was 0.165 µM; in series [3], 0.168 µM; in series [4], 0.218 µM; in series [5], 0.152 µM. Besides, the EC100 in series [4] worked out at 84.9 nM.

Regarding `O=C(Nc1ccc([N+](=O)[O-])cc1)C(c1ccccc1)N(C(=O)c1ccccc1[N+](=O)[O-])c1ccccc1` (configuration not stated), the selectivity ratio in series [1] came out at 10.1. Moreover, the IC50 in series [2] turned out to be 0.0331 µM; in series [3] it was 0.0294 µM; in series [4] it was 0.422 µM; in series [5], 0.0418 µM. In series [4], the EC100 is on record as 130.2 nM.

As to `Cc1ccc(N(C(=O)c2ccc(Br)cc2)C(C(=O)Nc2ccc([N+](=O)[O-])cc2)c2ccccc2)cc1` (configuration not stated), in series [1], the selectivity ratio is 2.34. For the same compound, the half-inhibitory concentration (IC50) in series [2] came out at 0.122 µM; in series [3], 0.121 µM; in series [4] it was 0.26 µM; in series [5], 0.111 µM. Moreover, the EC100 in series [4] was determined as 36.1 nM.

Consider `Cc1ccc(N(C(=O)c2ccc(C(F)(F)F)cc2)C(C(=O)Nc2ccc([N+](=O)[O-])cc2)c2ccccc2)cc1` (configuration not stated), for which the selectivity ratio in series [1] was 3.04. For the same compound, the IC50 was found to be 0.008 µM in series [2], 0.0103 µM in series [3], 0.0286 µM in series [4] and 0.0094 µM in series [5]. In series [4], the EC100 came to 14.9 nM.

On to `Cc1ccc(N(C(=O)c2ccccc2[N+](=O)[O-])C(C(=O)Nc2ccc([N+](=O)[O-])cc2)c2ccccc2)cc1` (configuration not stated), for which the selectivity ratio in series [1] came to 3.25. Besides, the IC50 in series [2] came to 0.295 µM; in series [3], 0.182 µM; in series [4] it was 0.499 µM; in series [5], 0.153 µM. Also, in series [4], the EC100 is on record as 305.4 nM.

Consider `CC(C)(C)OC(=O)NCC(=O)N(c1ccccc1)C(C(=O)Nc1ccc([N+](=O)[O-])cc1)c1ccccc1` (configuration not stated), for which the selectivity ratio in series [1] was 1.2. Moreover, the half-inhibitory concentration (IC50) in series [2] came out at 0.018 µM; in series [3], 0.0319 µM; in series [4] it was 0.0429 µM; in series [5], 0.0359 µM. The EC100 in series [4] came out at 18.2 nM.

For the compound `O=C(Nc1ccc([N+](=O)[O-])cc1)C(c1ccccc1[N+](=O)[O-])N(C(=O)c1ccccc1[N+](=O)[O-])c1ccccc1` (configuration not stated), the selectivity ratio in series [1] was 0.828. Besides, the IC50 in series [2] was determined as 0.184 µM; in series [3] it was 0.208 µM; in series [4], 0.36 µM; in series [5], 0.435 µM. Besides, the EC100 in series [4] was 198.9 nM.

On to `COc1ccc(S(=O)(=O)N(CC(=O)NO)CC(C)C)cc1`, for which the concentration for half-maximal inhibition (IC50) in series [6] amounted to 0.0785 µM; in series [7] it was 0.131 µM; in series [8], 0.069 µM.

For the compound `O=C(Nc1ccc([N+](=O)[O-])cc1)C(c1ccc(Br)cc1)N(C(=O)c1ccccc1[N+](=O)[O-])c1ccccc1` (configuration not stated), in series [1], the selectivity ratio worked out at 3.06. Further, the IC50 amounted to 0.0847 µM in series [2], 0.0821 µM in series [3], 0.233 µM in series [4] and 0.0761 µM in series [5]. In series [4], the EC100 is on record as 12.7 nM.

Regarding `O=C(Nc1ccc([N+](=O)[O-])cc1)C(c1ccc([N+](=O)[O-])cc1)N(C(=O)c1ccc([N+](=O)[O-])cc1)c1ccccc1` (configuration not stated), in series [1], the selectivity ratio stood at 0.768. The IC50 in series [2] worked out at 0.203 µM; in series [3] it was 0.189 µM; in series [4], 0.143 µM; in series [5], 0.187 µM. The EC100 in series [4] was determined as 82.4 nM.

For `O=C(Nc1ccc([N+](=O)[O-])cc1)C(c1ccc([N+](=O)[O-])cc1)N(C(=O)c1ccccc1[N+](=O)[O-])c1ccccc1` (configuration not stated), the selectivity ratio in series [1] came out at 1.32. Besides, the IC50 in series [2] amounted to 0.172 µM; in series [3] it was 0.162 µM; in series [4], 0.21 µM; in series [5] it was 0.159 µM. In addition, the EC100 in series [4] is listed as 158.3 nM.

Regarding `O=C(Nc1ccc([N+](=O)[O-])cc1)C(c1ccccc1)N(C(=O)C(Cl)(Cl)Cl)c1ccccc1` (configuration not stated), in series [1], the selectivity ratio turned out to be 148. Also, the IC50 was determined as 0.011 µM in series [2], 0.0228 µM in series [3], 4.56 µM in series [4] and 0.0309 µM in series [5]. Further, in series [4], the EC100 came out at 1912 nM.

For the compound `O=C(Nc1ccc([N+](=O)[O-])cc1)C(c1ccccc1)N(C(=O)c1ccccc1[N+](=O)[O-])c1cccc(Br)c1` (configuration not stated), the selectivity ratio in series [1] was determined as 1.44. For the same compound, the concentration for half-maximal inhibition (IC50) is 0.168 µM in series [2], 0.155 µM in series [3], 0.199 µM in series [4] and 0.138 µM in series [5]. Moreover, in series [4], the EC100 is reported as 89.7 nM.

With `O=C(Nc1ccc([N+](=O)[O-])cc1)C(c1ccccc1)N(C(=O)CCC(=O)N(c1ccccc1)C(C(=O)Nc1ccc([N+](=O)[O-])cc1)c1ccccc1)c1ccccc1` (configuration not stated), the selectivity ratio in series [1] turned out to be 1.56. Also, the IC50 in series [2] amounted to 0.164 µM; in series [3], 0.137 µM; in series [4], 0.195 µM; in series [5], 0.125 µM. The EC100 in series [4] was 141.4 nM.

With `O=C(Nc1ccc([N+](=O)[O-])cc1)C(c1ccccc1)N(C(=O)c1ccccc1[N+](=O)[O-])c1ccc(I)cc1` (configuration not stated), the selectivity ratio in series [1] was 1.77. Further, the IC50 in series [2] turned out to be 0.181 µM; in series [3], 0.182 µM; in series [4], 0.318 µM; in series [5], 0.18 µM. For the same compound, in series [4], the EC100 turned out to be 188.3 nM.

For `O=C(Nc1ccc([N+](=O)[O-])cc1)C(c1ccccc1)N(C(=O)c1ccc([N+](=O)[O-])cc1)c1ccccc1` (configuration not stated), in series [1], the selectivity ratio is 56.7. In addition, the IC50 was found to be 0.0269 µM in series [2], 0.0121 µM in series [3], 1.2 µM in series [4] and 0.0212 µM in series [5]. The EC100 in series [4] was determined as 469.8 nM.

`CC(=O)N(c1ccccc1)C(C(=O)Nc1ccc([N+](=O)[O-])cc1)c1ccccc1` (configuration not stated): the selectivity ratio in series [1] was 2.83. In addition, the IC50 in series [2] came to 0.309 µM; in series [3], 0.287 µM; in series [4], 0.509 µM; in series [5], 0.18 µM. Further, the EC100 in series [4] is recorded as 301 nM.

Turning to `O=C(Nc1ccc([N+](=O)[O-])cc1)C(c1ccccc1)N(C(=O)/C=C/c1ccccc1)c1ccccc1` (configuration not stated), the selectivity ratio in series [1] is 1.49. The 50% inhibitory concentration (IC50) in series [2] amounted to 0.0129 µM; in series [3], 0.013 µM; in series [4] it was 0.0291 µM; in series [5], 0.0195 µM. Besides, in series [4], the EC100 was 4.8 nM.

For the compound `O=C(Nc1ccc([N+](=O)[O-])cc1)C(c1ccccc1)N(C(=O)Cc1ccccc1)c1ccccc1` (configuration not stated), the selectivity ratio in series [1] is 46. For the same compound, the IC50 came out at 0.0264 µM in series [2], 0.0176 µM in series [3], 0.819 µM in series [4] and 0.0178 µM in series [5]. Also, the EC100 in series [4] is 290.7 nM.

Turning to `O=C(Nc1ccc([N+](=O)[O-])cc1)C(c1ccccc1)N(C(=O)c1ccc(C(F)(F)F)cc1)c1ccccc1` (configuration not stated), the selectivity ratio in series [1] came out at 5.75. Also, the IC50 in series [2] worked out at 0.012 µM; in series [3], 0.0116 µM; in series [4] it was 0.046 µM; in series [5], 0.008 µM. Moreover, the EC100 in series [4] worked out at 26.9 nM.

For the origin of these results see ChEMBL document CHEMBL4680119, “Battle tactics against MMP-9; discovery of novel non-hydroxamate MMP-9 inhibitors endowed with PI3K/AKT signaling attenuation and caspase 3/7 activation via Ugi bis-amide synthesis” (Eur J Med Chem, 2020).
